# Experimental data from patent US20240165259A1, “BIOORTHOGONAL REACTION SUITABLE FOR CLICK/UNCLICK APPLICATIONS” (DANA-FARBER CANCER INSTITUTE, INC., priority 2021, published 2024).
# Values joined by “and” are separate entries in the source; they are usually repeats but may differ in a detail not shown here. Equal entries are not always repeated.
# How the values were obtained:
# [1] = molecular target: T1, lysozyme-cyclooctyne conjugate (Lys-COT) 11″ (Gallus gallus, UniProt P00698); test: Time-dependent labeling of Lys-COT 11″ by TAMRA-hydroxylamines 6″-10″ (in-gel fluorescence); type: biochemical; details: 200 μM hydroxylamine, 10 μM Lys-COT 11″, PBS; for time to complete conversion (lysozyme labeling): room temperature; for extent of lysozyme labeling: 1-72 h
# T1 construct: purchased
# Protocol: The relative rates of hydroamination between TAMRA-hydroxylamines 6″-10″ ([…]) and Lys-COT 11″ (10 μM) were evaluated by monitoring the extent of lysozyme labeling over 1-72 h in phosphate-buffered saline (PBS) at room temperature by in-gel fluorescence (FIG. 26B).
# Lysozyme (CAS 12650-88-3, 50 mg/mL in deionized H2O) was diluted into phosphate-buffered saline (PBS, pH 7.4) to a final concentration of 10 mg/mL. […] The reaction solution was incubated for 1 h at room temperature. […] The concentration of lysozyme was determined by A280 measurement in denaturing buffer (pH 7.0, 6 M guanidinium, 30 mM MOPS) on a UV-vis spectrophotometer. The solution was diluted with PBS (pH 7.4) to a final concentration of 0.15 mg/mL or 0.60 mg/mL for labeling experiments. The protein solutions were snap frozen under liquid nitrogen and stored at −20° C.
# Time-dependent protein labeling experiments: A solution of TAMRA-hydroxylamine 6″ (Kang, et al., J. Am. Chem. Soc. 143:5616-5621 (2021))-8″ and 10″ (1.26 μL, 5 mM in H2O; 200 μM final concentration) or 9″ (1.26 μL, 5 mM in 50% DMSO/H2O; 200 μM final concentration) was added to a solution of lysozyme-COT 11″ (30.0 μL, 0.15 mg/mL in PBS, pH 7.4). The reaction mixtures were incubated at room temperature in the dark. At each time point, an aliquot of the reaction mixture (3 uL) was removed, quenched by adding 1×SDS sample buffer (19.5 μL) and N,N-diethylhydroxylamine (7.5 uL, 100 mM in H2O; 25 mM final concentration), snap frozen in liquid nitrogen, and stored at −80° C. until all samples were ready to be loaded on the gel. After 72 h, all reactions had been quenched. All samples were thawed, and each solution (6 μL) was loaded onto a 15-well 12% SDS-PAGE gel. The gel was run at room temperature and at 175 V for 50 min. In-gel fluorescence was imaged with a Typhoon™ FLA 9500 (GE) at 532 nm with a photomultiplier tube (PMT) setting of 500 V (FIG. 35-FIG. 37).
# [2] = Stability study of alkynes and enamine N-oxide 20′ in 50% CD3CN/PBS with or without glutathione or cell lysate (19F NMR); type: physicochemical; details: for time over which compound is stable: 2 mM compound, 50% CD3CN/PBS (pH 7.0), 19F NMR; for degradation by 19F NMR without glutathione: pH 7.0, room temperature, 7 days
# Protocol: The stability of alkynes 13′-15′ under biological conditions was evaluated (FIG. 13B). […] These stabilities compared favorably with contemporary bioorthogonal transformations (Oliveira et al., Chem. Soc. Rev. 46(16):4895-4950 (2017); Tian et al., ACS Chem. Biol. 14(12):2489-2496 (2019)). […] This observation was consistent with σ-withdrawing/n-donating alkyne substituents, such as halogens, simultaneously promoting hydroamination and attenuating conjugate addition by cellular nucleophiles.
# The enamine N-oxide products were remarkably stable, especially in aqueous solutions.
# All stability experiments were carried out at room temperature in 50% CD3CN in PBS (pH 7.0) with or without equimolar glutathione. pH was adjusted after the addition of glutathione. Reactions were monitored via ^19F NMR spectroscopy using α,α,α-benzotrifluoride as an internal standard (FIG. 17-FIG. 20).
# [3] = Reactivity screening of linear alkynes 8′-15′ (NMR conversion); type: physicochemical; details: 10 mM alkyne, 5 equivalents hydroxylamine, CD3CN, room temperature, 48 hours
# Protocol: With the desired alkynes in hand, their reactivity toward N,N-diethylhydroxylamine (2′) was examined. […] were each incubated with 5 equivalents of […] in CD3CN at room temperature, and the reaction conversions were monitored by ^1H (alkyne 8′) or ^19F (alkynes 9′-15′) NMR (FIG. 12A). […] Their conversion to the corresponding enamine N-oxides could only be achieved upon heating to 60° C. (Example 59).
# Each experiment was performed with 10 mM alkyne (8′-15′) and 50 mM […] in CD3CN at room temperature. The consumption of starting material was monitored via ^1H (8′) or ^19F (9′-15′) NMR spectroscopy using α,α,α-benzotrifluoride as an internal standard (FIG. 12A).
# [4] = Second-order kinetics of cyclooctyne hydroamination by N,N-diethylhydroxylamine (NMR; competition experiment for 10); type: physicochemical; details: CD3CN, room temperature; for k2 (M^−1s^−1), second order rate constant: equimolar cyclooctyne and N,N-diethylhydroxylamine, NMR, error = standard deviation of the mean, triplicate
# Protocol: Using NMR spectroscopy to monitor reaction progress, the second order rate constants for the reaction of N,N-diethylhydroxyl amine (1) with a panel of cyclooctynes 2-10 in d3-acetonitrile was determined at room temperature (FIG. 3).
# All kinetics experiments were carried out at room temperature in CD3CN. Reactions were monitored via NMR spectroscopy using an internal standard. Second order kinetics were performed by combining cyclooctynes and N,N-diethylhydroxylamine in a 1:1 ratio. […] The reported errors for rate constants are based on the standard deviation of the mean for experiments performed in triplicate.
# The second order rate constant for difluorocyclooctyne 10 was determined using a competition experiment with carbamate 9. […] The solution was transferred to an NMR tube and the product ratio (S14:S13) was determined by ^1HNMR spectroscopy using 1,3,5-trimethoxylbenzene as an internal standard. […] The reported error for the rate constant is the standard deviation of the mean for experiments performed in triplicate.
# T1 sequence (P00698 19-147): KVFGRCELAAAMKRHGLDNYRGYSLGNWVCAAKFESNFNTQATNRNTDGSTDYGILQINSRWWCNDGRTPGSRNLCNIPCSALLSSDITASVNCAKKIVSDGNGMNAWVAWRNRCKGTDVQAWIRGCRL
compound,measurement,setting,value
"CN(C)c1ccc2c(c1)Oc1cc(N(C)C)ccc1C21OC(=O)c2ccc(C(=O)NCCOCCN(O)Cc3ccccc3)cc21 [9″, N-(2-(2-(Benzyl(hydroxy)amino)ethoxy)ethyl)-3′,6′-bis(dimethylamino)-3-oxo-3H-spiro[isobenzofuran-1,9′-xanthene]-6-carboxamide]",time to complete conversion (lysozyme labeling),[1],≤ 6 h
"CC(C)N(O)CCOCCNC(=O)c1ccc2c(c1)C1(OC2=O)c2ccc(N(C)C)cc2Oc2cc(N(C)C)ccc21 [7″, 3′,6′-Bis(dimethylamino)-N-(2-(2-(hydroxy(isopropyl)amino)ethoxy)ethyl)-3-oxo-3H-spiro[isobenzofuran-1,9′-xanthene]-6-carboxamide]",extent of lysozyme labeling,[1],poor labeling
"CN(C)c1ccc2c(c1)Oc1cc(N(C)C)ccc1C21OC(=O)c2ccc(C(=O)NCCOCCN(O)C(C)(C)C)cc21 [8″, N-(2-(2-(tert-Butyl(hydroxy)amino)ethoxy)ethyl)-3′,6′-bis(dimethylamino)-3-oxo-3H-spiro[isobenzofuran-1,9′-xanthene]-6-carboxamide]",extent of lysozyme labeling,[1],poor labeling
"CC[N+]([O-])(CC)/C(Cl)=C/C(F)(F)OCCOCc1ccc(OC)cc1 [20′, (Z)-1-chloro-N,N-diethyl-3,3-difluoro-3-(2-((4-methoxybenzyl)oxy)ethoxy)prop-1-en-1-amine oxide]",degradation in cell lysate,"[2]; cell lysate, room temperature, 24 hours",no observable degradation
"CN(C)c1ccc2c(c1)Oc1cc(N(C)C)ccc1C21OC(=O)c2ccc(C(=O)N3CCN(O)CC3)cc21 [10″, 3′,6′-Bis(dimethylamino)-6-(4-hydroxypiperazine-1-carbonyl)-3H-spiro[isobenzofuran-1,9′-xanthen]-3-one]",time to complete conversion (lysozyme labeling),[1],≤ 10 h
"C#CC(F)(F)OCCOCc1ccc(OC)cc1 [11′, 1-((2-((1,1-difluoroprop-2-yn-1-yl)oxy)ethoxy)methyl)-4-methoxybenzene]","reactivity toward N,N-dialkylhydroxylamine (NMR conversion)",[3],moderate reactivity
"C#CC(F)CCOCc1ccc(OC)cc1 (centres unmarked) [9′, 1-(((3-fluoropent-4-yn-1-yl)oxy)methyl)-4-methoxybenzene]","reactivity toward N,N-dialkylhydroxylamine (NMR conversion)",[3],no conversion
"FC1C#CCCCCC1 (centres unmarked) [compound 7, 3-fluorocyclooct-1-yne]","k2 (M^−1s^−1), second order rate constant",[4],2.71 ± 0.43 M⁻¹ s⁻¹
"O=C(Nc1ccc([N+](=O)[O-])cc1)OC1C#CCCCCC1 (centres unmarked) [compound 9, cyclooct-2-yn-1-yl (4-nitrophenyl)carbamate]",rate acceleration over cyclooctyne (2),[4],120 fold
same,"k2 (M^−1s^−1), second order rate constant",[4],3.87 M⁻¹ s⁻¹ and 3.87 ± 0.55 M⁻¹ s⁻¹
"COc1ccc(COCCOC(F)(F)C#CBr)cc1 [13′, 1-((2-((3-bromo-1,1-difluoroprop-2-yn-1-yl)oxy)ethoxy)methyl)-4-methoxybenzene]",time to degradation in the presence of thiol,"[2]; 50% CD3CN/PBS, pH 7.0, 2 mM glutathione",< 10 min
"COc1ccc(COCCOC(F)(F)C#CCl)cc1 [14′, 1-((2-((3-chloro-1,1-difluoroprop-2-yn-1-yl)oxy)ethoxy)methyl)-4-methoxybenzene]",time over which compound is stable,[2],≥ 2 weeks
same,degradation by 19F NMR without glutathione,[2]; 50% CD3CN/PBS,no degradation
"dibenzoazacyclooctyne [compound 8, reference compound]","k2 (M^−1s^−1), second order rate constant",[4],2.77 ± 0.13 M⁻¹ s⁻¹
"C#CCOCc1ccc(OC)cc1 [8′, 1-methoxy-4-((prop-2-yn-1-yloxy)methyl)benzene]","reactivity toward N,N-dialkylhydroxylamine (NMR conversion)",[3],no conversion
"C1#CC2(CCCCC1)OCCO2 [compound 5, 1,4-dioxaspiro[4.7]dodec-6-yne]","k2 (M^−1s^−1), second order rate constant",[4],1.20 ± 0.09 M⁻¹ s⁻¹
"COc1ccc(COCCC(F)(F)C#CCl)cc1 [15′, 1-(((5-chloro-3,3-difluoropent-4-yn-1-yl)oxy)methyl)-4-methoxybenzene]",time over which compound is stable,[2],≥ 1 weeks
same,half-life,"[2]; 50% CD3CN/PBS with 2 mM glutathione, pH 7, 50% CD3CN/PBS, pH 7.0, 2 mM glutathione, room temperature (500 μM compound elsewhere in the source), read-out: half-life in the presence of glutathione (converted)",43 h
same,degradation by 19F NMR without glutathione,[2]; 50% CD3CN/PBS,no degradation
"CC(=O)OC1C#CCCCCC1 (centres unmarked) [compound 6, cyclooct-2-yn-1-yl acetate]","k2 (M^−1s^−1), second order rate constant",[4],2.13 ± 0.03 M⁻¹ s⁻¹
"OC1C#CCCCCC1 (centres unmarked) [compound 4, cyclooct-2-yn-1-ol]","k2 (M^−1s^−1), second order rate constant",[4],1.19 ± 0.15 M⁻¹ s⁻¹
"COc1ccc(COCCOC(F)(F)C#CI)cc1 [12′, 1-((2-((1,1-difluoro-3-iodoprop-2-yn-1-yl)oxy)ethoxy)methyl)-4-methoxybenzene]","reactivity toward N,N-dialkylhydroxylamine (NMR conversion)",[3],moderate reactivity
"C#CC(F)(F)CCOCc1ccc(OC)cc1 [10′, 1-(((3,3-difluoropent-4-yn-1-yl)oxy)methyl)-4-methoxybenzene]","reactivity toward N,N-dialkylhydroxylamine (NMR conversion)",[3],partial conversion
